The values below come from ChEMBL document CHEMBL1136874, “Novel carbazole and acyl-indole antimitotics” (Bioorg Med Chem Lett, 2009).

The nature of experiment [1]: Cell cycle arrest in human leukemic cells assessed as mitotic block by cytometry. Type of experiment: functional, cell-based. The settings on record: Leukemia cell.
The nature of experiment [2]: Displacement of [3H]colchicine from tubulin. Background: In a radioligand displacement assay an active substance lowers the binding of a labelled ligand.
The test system of experiment [3] is SW-620. Description: Cytotoxicity against human SW620 cells. Type of experiment: functional.
Experiment [4] has as its system HT-29. In words: Cytotoxicity against human HT-29 cells. Type of experiment: functional.
Experiment [5] relates to K562. In words: Cytotoxicity against human K562 cells. Type of experiment: functional.
The test system of experiment [6] is PC-3. In words: Cytotoxicity against human PC3 cells. Type of experiment: functional.
Experiment [7] has as its system MCF7. In words: Cytotoxicity against human MCF7 cells. Type of experiment: functional.
The nature of experiment [8]: Inhibition of tubulin polymerization.
Experiment [9] concerns Leukemia cell. Description: Increase in phospho-Histone H3-ser10 level in human leukemic cells by flow cytometry. Type of experiment: functional, cell-based.
Experiment [10] in a line: Cell cycle arrest in human leukemic cells assessed as blockage in G2/M phase by high content cellular analysis. The following applies: Leukemia cell. Type of experiment: functional, cell-based.
Experiment [11] has as its system Leukemia cell. In words: Induction of apoptosis in human leukemic cells. Type of experiment: functional, cell-based.
Experiment [12] in a line: Displacement of labeled vinblastine from tubulin.

Activity calls are given as the source filed them. The calls are words filed in the database; no cut-off is given here.

Consider `NC(=O)c1ccc(-n2c3c(c4ccccc42)C(=O)CCC3)c(C(F)(F)F)c1`, for which, in experiment [1], the Activity is 0.24 µM.

The molecule `CN[C@H]1CCc2cc(OC)c(OC)c(OC)c2-c2ccc(OC)c(=O)cc21` [DEMECOLCINE] gave a concentration for half-maximal inhibition (IC50) in experiment [2] of 3.58 µM. Also, the Activity in [3] is recorded as 31 nM; in experiment [4], 25 nM; in experiment [5] it was 16 nM; in experiment [6] it was 31 nM; in experiment [7] it was 7.8 nM.

As for `CC(=O)c1cn(-c2ccc(C(N)=O)cc2Cl)c2ccccc12`, the Activity in experiment [1] is 0.14 µM.

For `CC(=O)Nc1ccc(-n2c3c(c4ccccc42)C(=O)CCC3)c(Cl)c1`, in experiment [1], the Activity amounted to 0.41 µM.

For the molecule `O=C(O)c1ccc(-n2c3c(c4ccccc42)C(=O)CCC3)c(Br)c1`, in experiment [1], the Activity was above 10 µM.

Consider `N=C(NO)c1ccc(-n2c3c(c4ccccc42)C(=O)CCC3)c(Br)c1`, for which the Activity in [1] was 2 µM.

On to `COc1cc2c(c(OC)c1OC)-c1ccc(OC)c(=O)cc1[C@@H](NC(C)=O)CC2`, for which the Activity in experiment [1] worked out at 0.043 µM.

For the molecule `NC(=O)c1ccc(-n2c3c(c4ccccc42)C(=O)CCC3)cc1NCc1ccccc1`, the Activity in [1] amounted to 6.2 µM.

`C=CCNc1cc(-n2c3c(c4ccccc42)C(=O)CCC3)ccc1C(N)=O`: the Activity in [1] came out at 0.99 µM.

For `NC(=O)c1ccc(-n2c3c(c4ccccc42)C(=O)CCC3)c(Br)c1`, the Activity in [1] was found to be 0.15 µM.

For the molecule `NC(=O)c1ccc(-n2c3c(c4ccccc42)C(=O)CCC3)c(F)c1`, in experiment [1], the Activity worked out at 5 µM.

As for `N#Cc1ccc(-n2c3c(c4ccccc42)C(=O)CCC3)c(C(F)(F)F)c1`, the Activity in [1] was above 10 µM.

As to `COc1cc(-n2c3c(c4ccccc42)C(=O)CCC3)ccc1C(N)=O`, in experiment [1], the Activity was above 10 µM.

In experiment [8], `CC[C@]1(O)C[C@@H]2CN(CCc3c([nH]c4ccccc34)[C@@](C(=O)OC)(c3cc4c(cc3OC)N(C)[C@H]3[C@@](O)(C(=O)OC)[C@H](OC(C)=O)[C@]5(CC)C=CCN6CC[C@]43[C@@H]65)C2)C1` [VINBLASTINE] came in with an IC50 of 1.15 µM.

`NC(=O)c1ccc(-n2c3c(c4ccccc42)C(=O)CCC3)c(-c2ccccc2)c1`: in experiment [1], the Activity is above 10 µM.

On to `CC(=O)c1cn(-c2ccc(C(N)=O)cc2Cl)c2cc(Cl)ccc12`, for which the Activity in experiment [3] stood at 6.5 nM; in experiment [4], 9.3 nM; in experiment [1], 0.21 µM; in experiment [5] it was 0.085 nM; in experiment [6] it was 2.2 nM; in experiment [7], 1.2 nM.

As for `COc1cc(-n2cc(C(C)=O)c3ccccc32)ccc1C(N)=O`, the Activity in experiment [1] was 0.1 µM.

Take `NC(=O)c1ccc(-n2c3c(c4ccccc42)C(=O)CCC3)c(Cl)c1`: the Activity in experiment [3] came out at 94 nM; in [4] it was 300 nM; in experiment [1] it was 0.42 µM; in [5], 210 nM; in experiment [6], 140 nM; in experiment [7], 85 nM.

Take `NC(=O)c1ccc(-n2c3c(c4ccccc42)C(=O)CCC3)cc1`: the Activity in [3] was 1200 nM; in experiment [4] it was 4500 nM; in experiment [1] it was above 10 µM; in experiment [5], 2000 nM; in experiment [6] it was 7000 nM; in [7] it was 2300 nM.

`NC(=O)c1ccc(-n2c3c(c4ccccc42)C(=O)CCC3)c(N)c1`: the Activity in experiment [1] is 10 µM.

As for `COc1cc(C(N)=O)ccc1-n1c2c(c3ccccc31)C(=O)CCC2`, the Activity in experiment [1] is 0.42 µM.

On to `NC(=O)c1ccc(-n2c3c(c4ccccc42)C(=O)CCC3)cc1Br`, for which the Activity in experiment [1] was above 10 µM.

`CC(C)C(=O)c1cn(-c2ccc(C(N)=O)cc2Cl)c2ccccc12`: in experiment [1], the Activity was determined as 5 µM.

As to `COc1cc(C(N)=O)ccc1-n1cc(C(C)=O)c2ccccc21`, in experiment [1], the Activity was found to be 0.17 µM.

Regarding `NC(=O)Nc1ccc(-n2c3c(c4ccccc42)C(=O)CCC3)c(Cl)c1`, the IC50 stood at 1.64 µM in [8] and 1.61 µM in [2]. Also, the outcome in [9], in experiment [10] and in experiment [11] was Active. The Activity was 15 nM in experiment [3]; 3.2 nM in [4]; 0.12 µM in [1]; 5.5 nM in experiment [5]; 790 nM in [6]; 0.87 nM in [7]. Also, the outcome in [12] was inactive.

With `Cc1cc(C(N)=O)ccc1-n1c2c(c3ccccc31)C(=O)CCC2`, the Activity in experiment [1] came out at 0.96 µM.

The IC50 is the concentration at which inhibition is half-maximal. Low readings indicate higher potency, high ones lower potency.
